Consider four molecules from article PMC11887051, “Discovery of ONO-2920632 (VU6011887): A Highly Selective and CNS Penetrant TREK-2 (TWIK-Related K+ Channel 2) Preferring Activator In Vivo Tool Compound” (ACS Chemical Neuroscience, 2025).

Each structure is given as a SMILES string. A value given as a limit tells only on which side of the number the result lay.

On the set-up of data set [1]: method as in PMID 31072652. The settings on record: previously reported; cited from earlier work.
In data set [2] the target is T1, TREK-1 (Homo sapiens, UniProt O95069).
T1 sequence (O95069 1-426): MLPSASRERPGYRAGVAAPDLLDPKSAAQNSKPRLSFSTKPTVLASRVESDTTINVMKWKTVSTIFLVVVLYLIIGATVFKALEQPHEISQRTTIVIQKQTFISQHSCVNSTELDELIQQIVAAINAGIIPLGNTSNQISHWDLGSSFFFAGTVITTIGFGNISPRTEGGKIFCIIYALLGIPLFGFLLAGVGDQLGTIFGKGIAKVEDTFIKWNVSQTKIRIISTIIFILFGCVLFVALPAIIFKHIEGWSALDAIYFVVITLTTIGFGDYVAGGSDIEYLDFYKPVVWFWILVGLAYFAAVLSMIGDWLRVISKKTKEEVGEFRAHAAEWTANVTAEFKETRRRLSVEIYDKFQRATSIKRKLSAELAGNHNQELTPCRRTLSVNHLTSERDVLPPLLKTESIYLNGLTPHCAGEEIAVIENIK
The data set can be described thus: TREK-1 thallium flux assay (hTREK-1/CHO). Format: cell-based. Further details: host or cells: CHO. The note with it: for Emax: % activation relative to 10 µM BL-1249. On the procedure: (§1) Procedures for Biological Experiments
TREK-1 and TREK-2 thallium flux assay protocol
CHO cells stably expressing human TREK-1 (hTREK-1/CHO) were constructed at Evotec. […]
hTREK-1/CHO or hTREK-2/HEK were plated in 384-well plates at a density of 1.0x10^4 cells/well or 2.0x10^4 cells/well, respectively, and cultured overnight. After the wash by HBSS + 20 mM HEPES buffer, cells were loaded with Thallos dye for 1 hour at room temperature. After the wash […]
(§2) dissolved with HBSS + 20mM HEPES buffer were added to each well. After 10 minutes incubation at room temperature, thallium stimulus buffer were added to each well and the fluorescent intensity are measured by Panoptic. The final thallium concentration was 0.36 mM in […]
(§3) TREK-1 or 0.24 mM in TREK-2, respectively. […]

Details of data set [3]: method as in PMID 31072652. The note with it: previously reported; cited from earlier work. The source holds these as a separate data set.
Data set [4] concerns the target T2, TREK-2 (Homo sapiens, UniProt P57789).
T2 sequence (P57789 1-538): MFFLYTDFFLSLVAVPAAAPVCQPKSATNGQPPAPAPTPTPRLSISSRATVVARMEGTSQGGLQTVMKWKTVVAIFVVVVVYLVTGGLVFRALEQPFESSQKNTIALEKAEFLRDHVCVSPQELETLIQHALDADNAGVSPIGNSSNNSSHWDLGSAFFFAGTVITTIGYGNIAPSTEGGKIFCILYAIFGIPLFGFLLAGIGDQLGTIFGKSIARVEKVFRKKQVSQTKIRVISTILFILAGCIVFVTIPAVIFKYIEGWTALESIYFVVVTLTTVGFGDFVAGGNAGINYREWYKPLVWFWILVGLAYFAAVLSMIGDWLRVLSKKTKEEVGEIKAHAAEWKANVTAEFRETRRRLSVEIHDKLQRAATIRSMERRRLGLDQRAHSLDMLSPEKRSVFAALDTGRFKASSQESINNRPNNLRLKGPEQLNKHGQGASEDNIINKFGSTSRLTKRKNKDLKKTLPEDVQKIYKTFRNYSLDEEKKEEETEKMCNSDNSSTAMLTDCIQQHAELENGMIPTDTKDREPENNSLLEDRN
Kind of data set: TREK-2 thallium flux assay (hTREK-2/HEK). The class given is cell-based. Details: expressed in transfected cells; host or cells: HEK293. The settings on record: for Emax: % activation relative to 10 µM BL-1249. On the procedure: as §1
TREK-1 and TREK-2 thallium flux assay protocol […]
HEK293 cells stably expressing human TREK-2 (hTREK-2/HEK) were constructed at Ono. hTREK-1/CHO or hTREK-2/HEK were plated in 384-well plates at a density of 1.0x10^4 cells/well or 2.0x10^4 cells/well, respectively, and cultured overnight. After the wash by HBSS + 20 mM HEPES buffer, cells were loaded with Thallos dye for 1 hour at room temperature. After the wash […]
as §2, §3

Data set [5] deals with T2, TREK-2. Details: method as in PMID 31072652. The settings on record: previously reported; cited from earlier work.
For data set [6], the target named is T1, TREK-1. Details: method as in PMID 31072652. The note with it: previously reported; cited from earlier work.
Another data set deals with TWIK-2. Kind of data set: human 86Rb flux K2P selectivity panel. The note with it: 86Rb flux K2P panel. The class given is cell-based.
Another data set concerns TASK-2. The data set can be described thus: human 86Rb flux K2P selectivity panel. The class given is cell-based. The settings on record: 86Rb flux K2P panel.
The subject of the next data set is TASK-1. The data set can be described thus: human 86Rb flux K2P selectivity panel. Format: cell-based. The note with it: 86Rb flux K2P panel.
Another data set deals with TRAAK. The data set can be described thus: human 86Rb flux K2P selectivity panel. Format: cell-based. The settings on record: 86Rb flux K2P panel.
The target of data set [7] is T2, TREK-2. The data set can be described thus: human 86Rb flux K2P selectivity panel. Format: cell-based. The settings on record: data is not shown.
For data set [8], the target named is T1, TREK-1. Kind of data set: human 86Rb flux K2P selectivity panel. The class given is cell-based. The note with it: data is not shown.
The next data set has as its target T3, mouse TREK-1 (Mus musculus, UniProt P97438).
T3 sequence (P97438 1-426): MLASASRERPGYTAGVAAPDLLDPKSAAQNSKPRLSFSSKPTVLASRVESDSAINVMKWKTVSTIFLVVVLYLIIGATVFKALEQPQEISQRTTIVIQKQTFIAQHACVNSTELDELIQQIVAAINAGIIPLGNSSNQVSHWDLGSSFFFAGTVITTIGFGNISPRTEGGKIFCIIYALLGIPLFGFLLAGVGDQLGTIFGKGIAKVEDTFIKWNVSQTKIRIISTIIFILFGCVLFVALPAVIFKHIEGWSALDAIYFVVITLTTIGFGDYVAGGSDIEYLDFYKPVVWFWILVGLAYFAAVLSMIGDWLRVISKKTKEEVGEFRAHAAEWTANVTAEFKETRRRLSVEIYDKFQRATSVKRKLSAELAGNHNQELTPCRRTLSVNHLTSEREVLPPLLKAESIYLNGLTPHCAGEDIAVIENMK
The data set can be described thus: mouse TREK-1 MPC assay. Format: cell-based. The settings on record: manual patch clamp. On the technique in general: The patch-clamp technique gives a direct electrical read-out from membranes.

Another data set concerns TASK-3. Kind of data set: human 86Rb flux K2P selectivity panel. Format: cell-based. The settings on record: 86Rb flux K2P panel.
The target in the next data set is T4, TRESK (Homo sapiens, UniProt Q7Z418).
T4 sequence (Q7Z418 1-384): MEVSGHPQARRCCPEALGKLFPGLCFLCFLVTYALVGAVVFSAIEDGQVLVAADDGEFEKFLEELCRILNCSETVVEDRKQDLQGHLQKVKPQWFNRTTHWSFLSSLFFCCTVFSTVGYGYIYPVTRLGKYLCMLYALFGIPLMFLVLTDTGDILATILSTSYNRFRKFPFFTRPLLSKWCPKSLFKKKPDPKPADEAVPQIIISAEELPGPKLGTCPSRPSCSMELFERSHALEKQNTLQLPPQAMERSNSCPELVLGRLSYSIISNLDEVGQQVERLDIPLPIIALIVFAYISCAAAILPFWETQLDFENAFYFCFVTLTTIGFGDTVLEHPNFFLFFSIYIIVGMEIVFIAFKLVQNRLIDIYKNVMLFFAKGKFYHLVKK
Kind of data set: human 86Rb flux K2P selectivity panel. Format: cell-based. The settings on record: 86Rb flux K2P panel.

Another data set deals with T5, mouse TREK-2 (Mus musculus, UniProt Q8BUW1).
T5 sequence (Q8BUW1 1-535): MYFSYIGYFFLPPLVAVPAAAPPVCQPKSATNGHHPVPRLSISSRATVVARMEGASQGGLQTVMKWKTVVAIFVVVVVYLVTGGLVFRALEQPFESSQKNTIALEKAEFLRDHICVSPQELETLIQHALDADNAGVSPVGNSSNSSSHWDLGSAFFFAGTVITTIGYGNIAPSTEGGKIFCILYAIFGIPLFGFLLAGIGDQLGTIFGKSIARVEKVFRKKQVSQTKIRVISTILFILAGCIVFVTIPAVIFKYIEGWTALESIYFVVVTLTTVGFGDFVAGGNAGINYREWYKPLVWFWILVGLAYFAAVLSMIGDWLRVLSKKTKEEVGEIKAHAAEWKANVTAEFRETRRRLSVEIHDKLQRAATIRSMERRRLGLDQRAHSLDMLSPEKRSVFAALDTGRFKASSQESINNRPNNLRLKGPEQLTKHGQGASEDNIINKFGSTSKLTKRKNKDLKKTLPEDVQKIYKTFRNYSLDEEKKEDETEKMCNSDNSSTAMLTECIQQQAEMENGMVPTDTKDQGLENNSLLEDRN
Kind of data set: mouse TREK-2 MPC assay. The class given is cell-based. The note with it: mouse, manual patch clamp.

Where [9] appears, read: control compound, table footnote.

In the case of `c1ccc(-c2nnn[nH]2)c(Nc2cccc3c2CCCC3)c1` [BL-1249, (5,6,7,8-tetrahydro-naphthalen-1-yl)-[2-(1H-tetrazol-5-yl)-phenyl]-amine, reference compound], the rat plasma fu in [1] was below 0.001. The IC50 (commonly the concentration that inhibits the measured activity by half) against TREK-1 [2] (setting [9]) was found to be 5.2 µM; on TREK-2 [4] (setting [9]), 7.3 µM. Moreover, in data set [3], the “rat CLhep (predicted hepatic clearance)” value is reported as above 50.9 mL/min/kg. The “TREK-2 Emax” value at TREK-2 [5] is recorded as 133 ± 23%. The “TREK-1 Emax” value on TREK-1 [6] is on record as 109 ± 14%.
Consider `O=C(Nc1cc(F)c(Br)cc1C(=O)O)c1ccc(SC(F)(F)F)cc1` [Compound 8], for which, in data set [1], the rat plasma fu is listed as 0.041. For the same molecule, the “rat CLhep (predicted hepatic clearance)” value in data set [3] was 35.5 mL/min/kg. Further, the “TREK-2 Emax” value on TREK-2 [5] was 84%. Further, the “TREK-1 Emax” value on TREK-1 [6] is recorded as 101%.
In the case of `COc1cc(OC(F)(F)F)ccc1CNC(=O)c1ccc(-n2cncn2)nc1` [Compound 14b], the half-maximal effective concentration (EC50) (in general, the concentration giving half of the maximal effect) stood at 1.5 µM on TREK-1 [2] and 0.41 µM on TREK-2 [4]. Moreover, the maximal effect (Emax) (in general, the maximal effect, on the per cent scale that the assay sets) on TREK-1 [2] worked out at 42%; on TREK-2 [4], 158%. Also, the “Fold TREK-2” value at TREK-2 [4] (TREK-2 preference over TREK-1, thallium flux) is given as 3.7 fold.
With `Cc1cc(OC(F)(F)F)ccc1CNC(=O)c1ccc(-n2cncn2)nc1` [Compound 14c], in the data set with TWIK-2, the “selectivity against TWIK-2 over TREK-2” value is given as above 43 fold. The “selectivity against TASK-2 over TREK-2” value with TASK-2 was above 43 fold. Moreover, the “selectivity against TASK-1 over TREK-2” value in the data set on TASK-1 is reported as above 43 fold. Further, the “selectivity against TRAAK over TREK-2” value with TRAAK is listed as above 43 fold. Further, the “activity at TREK-2 in 86Rb flux panel” value at TREK-2 [7] is listed as “submicromolar TREK-2 activator”. Further, the EC50 was around 1.1 µM at TREK-1 [2], 2.8 µM at mouse TREK-1, 0.36 µM on TREK-2 [4] and 0.31 µM at mouse TREK-2. For the same molecule, the Emax at TREK-1 [2] turned out to be 20%; on mouse TREK-1 it was 31%; on TREK-2 [4], 109%; on mouse TREK-2, 72%. In addition, on TREK-1 [8], the “activity at TREK-1 in 86Rb flux panel” value is listed as “partial TREK-1 activator”. Besides, the “selectivity against TASK-3 over TREK-2” value in the data set with TASK-3 is listed as above 43 fold. Also, at TRESK, the “selectivity against TRESK over TREK-2” value is above 43 fold.
